Key:
Raji B lymphoma cells = assay: Orthotopic murine CNS lymphoma model, Raji (bioluminescence tumor growth, survival); type: in vivo, athymic mice; conditions: for median survival: Raji model; for in vivo tumor growth (luminescence signal) vs control: P<0.05, n=8
Description: (§1) Animal and housing: Female athymic mice (8-10 weeks old and weighing 20-25 g at the beginning of the study) were purchased from Harlan laboratories. They were housed in a temperature-controlled sterilized room (23±2° C.) with a 12-h light/dark cycle and free access to food and water throughout the study. Animal use was approved by Mayo Foundation Institutional Animal Use and Care Committee and was in accordance with NIH Guide for the Care and Use of Laboratory Animals.
(§2) Orthotopic murine CNS lymphoma models: Two murine CNS lymphoma models were created by intracerebral injection of 2.5×10^4 luciferase-transfected Raji or 1×10^5 luciferase-transfected OCI-LY10 B lymphoma cells in athymic mice under anesthesia using a stereotactic platform. Eight-week-old athymic mice underwent minimum 7-day acclimation/quarantine prior to surgery. Surgery was performed in a laminar flow hood under sterile conditions. Tylenol 300 mg/kg PO was given for analgesia 24 hours before the surgery continuing 48 hours postoperatively. Anesthesia was achieved by inhalation of 1-2% isoflurane. After the mouse became well anesthetized, it was placed in the Kopf stereotactic instrument. A small amount of BNP antibiotic cream (a mixture of Bacitracin, Neomycin and Polymyxin) was smeared on its eyes to prevent infection and corneal damage during surgery. A strip of soft fabric was placed over the mouse's body and tail to prevent excessive heat loss during surgery. The scalp area was cleaned with a 2% solution of Betadine and dried with cotton tipped applicator. A midline sagittal incision was made in the scalp. A small burr hole was drilled in the left skull with a surgical drill (Kopf) or a Dremel drill according to the coordinates (AP: 0.5 mm, LM: 2.5 mm) as determined by reference to the mouse brain atlas by Franklin and Paxinos. Paxinos, 2001. The dura mater was surgically exposed, and a 10 μl-Hamilton syringe with a 26S-gauge beveled needle was lowered into the left cerebral hemisphere up to the depth of 3 mm and 5 μl of tumor cells was slowly infused (0.5 μl/min). The needle was left in place for 5 minutes to prevent reflux and then was slowly removed. The skin was closed with wound clips. The mice recovered from anesthesia and surgery in a warm environment and were not returned to their cages until motor activity returned. Cages were placed on top of a heating pad to minimize the loss of body heat during the recovery. The mice were monitored postoperatively at least twice a day for 5 days or until recovery was complete.
(§3) Bioluminescence imaging of mouse: After intracerebral injection of lymphoma cells, all the mice were subjected to bioluminesence imaging (“BLI”) twice a week starting at day-4 post-intracerebral injection to monitor the real-time in vivo tumor growth. BLI was conducted using a Xenogen Lumina optical imaging system (Caliper Life Sciences, Hopkinton, Mass.). Mice were anesthetized with isofluorane before intraperitoneal injections of luciferin at a dose of 150 mg/kg, providing a saturating substrate concentration for luciferase enzyme. Peak luminescent signals were recorded 10 minutes after luciferin injection. Regions of interest encompassing the intracranial area of signal were defined using Living Image software (Xenogen), and the total photons/s/steradian/cm^2 was recorded.
(§4) In vivo preclinical evaluation of 4-amino-2-(2,6-dioxo-piperidine-3-yl)-isoindoline-1,3-dione in murine CNS lymphoma models: Mice were imaged 4 days after intracerebral injection and were distributed among different treatment groups with equivalent average BLI signal. Real time tumor growth was monitored by BLI. Tumor growth and survival data were analyzed for statistical difference between the groups. Mice were assigned to four experimental groups and one vehicle control group in Raji model. Mice in experimental groups received 4-amino-2-(2,6-dioxo-piperidine-3-yl)-isoindoline-1,3-dione 0.3 mg/kg, 3 mg/kg, 10 mg/kg, or 30 mg/kg by oral gavage daily for 28 days.

[1] = test system: OCI-LY10 B lymphoma cells; assay: Orthotopic murine CNS lymphoma model, OCI-LY10 (bioluminescence tumor growth, survival); type: in vivo, athymic mice; conditions: for median survival: OCI-LY10 model; for in vivo tumor growth (luminescence signal) vs control: P<0.05, n=8
Description: as §1, §2, §3
as §4, with “days. […]” for “days.”

[2] = test system: primary murine microglia cells cocultured with Raji lymphoma cells; assay: Polarization of primary murine microglia cocultured with Raji lymphoma cells with or without primary murine NK cells; type: cell-based; conditions: for M2 polarization of microglia cells (FXIIIA, pSTAT6): coculture with Raji lymphoma cells, without NK cells; for polarization status of microglia cells (iNOS, pSTAT1): triple culture with Raji lymphoma cells and primary murine NK cells, 10 ug/ml 48 hours
Description: Treatments: In experiments in which IL-4 was used to induce M2 polarization of macrophages, cells were treated with IL-4 (20 ng/ml) for 48 hours followed by treatment with 4-amino-2-(2,6-dioxo-piperidine-3-yl)-isoindoline-1,3-dione (10 ug/ml) or DMSO control for 48 hours. In triple cell culture experiments with lymphoma cells, macrophages, and NK cells, the treatment was with either DMSO or 4-amino-2-(2,6-dioxo-piperidine-3-yl)-isoindoline-1,3-dione (10 ug/ml) for 48 hours.
Immunofluorescence for analysis of macrophage polarization in cell culture experiments: Live cells were fixed in 10% formalin for 30 minutes at room temperature followed by permeabilization with PBS-0.2% Triton X-100 for 2 min. After blocking with PBS-5% goat serum-0.02% Triton X-100 for 30 minutes at 37° C., the cells were incubated overnight at 4° C. with rat monoclonal F4/80 antibody (for primary microglia cells, 1:200 Abcam), rat monoclonal CD11b (for U937, 1:200 Biolegend), rabbit polyclonal Ym1 antibody (for primary microglia cells and primary peritoneal macrophages, 1:200, Stemcell Technologies, Vancouver, Canada), rabbit polyclonal FXIII A antibody (for U937, 1:200, Abcam), mouse monoclonal p-STAT1 antibody (1:200, Abcam), rabbit polyclonal p-STAT6 antibody (1:200, Abcam) or rabbit iNOS antibody (1:200, Calbiochem). After washing, cells were incubated with the Alexa Fluor 594 Goat anti-Rat IgG secondary antibody (1:1000, Life Technologies) and FITC Donkey anti-rabbit IgG secondary antibody (1:1000, Life technology) or FITC Goat anti-mouse IgG secondary antibody (1:1000, Sigma) at 37° C. for 45 minutes. Finally, Vectashield H-1200 mounting medium with DAPI (Vector Laboratories) was used to stain the nuclei. Images were obtained on a Zeiss LSM 510 META confocal microscope.

[3] = 3 mg/kg oral gavage daily for 28 days
[4] = 10 mg/kg oral gavage daily for 28 days
[5] = 30 mg/kg oral gavage daily for 28 days
[6] = listed as 4-amino-2-(2,6-dioxo-piperidine-3-yl)-isoindoline-1,3-dione

Nc1cccc2c1C(=O)N(C1CCC(=O)NC1=O)C2=O (stereo not drawn) [Pomalidomide, 4-amino-2-(2,6-dioxo-piperidine-3-yl)-isoindoline-1,3-dione]
body weight vs control group (Raji B lymphoma cells; 3, 10 and 30 mg/kg treatment groups, murine CNS lymphoma model not specified): able to maintain their body weight better than those in control group | median survival (Raji B lymphoma cells; 0.3 mg/kg oral gavage daily for 28 days): 24 days | median survival (Raji B lymphoma cells; [3]): 28 days | median survival (Raji B lymphoma cells; [4]): 27 days | median survival (Raji B lymphoma cells; [5]): 31 days | in vivo tumor growth (luminescence signal) vs control (Raji B lymphoma cells; Raji model, 3, 10 and 30 mg/kg groups): significantly slower | in vivo tumor growth (luminescence signal) vs control (Raji B lymphoma cells; Raji model, 3, 10 and 30 mg/kg groups, listed as 4-amino-2-(2,6-dioxo-piperidine-3-yl)-isoindoline-1,3-dione): reduction of tumor growth | survival, Kaplan-Meier analysis vs control (Raji B lymphoma cells; Raji model, 3, 10 and 30 mg/kg groups, p<0.05, n=8): prolongation of survival | median survival [1, 3]: 32 days | median survival [1, 4]: 37 days | median survival [1, 5]: 40 days | in vivo tumor growth (luminescence signal) vs control ([1]; OCI-LY10 model, 3, 10 and 30 mg/kg groups): significantly slower | in vivo tumor growth (luminescence signal) vs control ([1]; OCI-LY10 model, 3, 10 and 30 mg/kg groups, listed as 4-amino-2-(2,6-dioxo-piperidine-3-yl)-isoindoline-1,3-dione): reduction of tumor growth | survival, Kaplan-Meier analysis vs control ([1]; OCI-LY10 model, 3, 10 and 30 mg/kg groups, p<0.05, n=8): prolongation of survival | M2 polarization of microglia cells (FXIIIA, pSTAT6) [2]: reversed | M2 polarization of microglia cells (FXIIIA, pSTAT6) [2, 6]: M2 polarization was not seen | polarization status of microglia cells (iNOS, pSTAT1) [2]: from M2 to M1 | polarization status of microglia cells (iNOS, pSTAT1) [2, 6]: became M1-polarized
